Assay [1] deals with T1, α5 subunit-radixin interaction (Mus musculus, UniProt P26043).
T1 construct: tissue lysate prepared from the hippocampus of adult mice; from tissue; host or cells: hippocampus of adult mice (C57BL/6J×SvEv)
In words: Co-immunoprecipitation and Western blot of α5 subunit-radixin coupling in hippocampal tissue lysate. In kind it is binding. The following applies: 20 μM peptide without TAT sequence, one hour incubation. The procedure: The experiments used tissue lysate prepared from the hippocampus of adult mice (C57BL/6J×SvEv, 2-4 month old, male). Hippocampal tissue was homogenized in ice-cold RIPA buffer (20 mM Tris-HCL, pH 7.5, 150 mM NaCl, 1 mM Na2EDTA, 1 mM EGTA, 1% NP-40, 1% sodium deoxycholate, 2.5 mM sodium pyrophosphate, 1 mM β-glycerophosphate) supplemented with 1 mM sodium orthovanadate and 1% protease inhibitor cocktail and 1% phosphatase inhibitor cocktail (Roche Diagnostics, GmbH, Manheim Germany). The tissue lysate was subsequently spun at 14,000 rpm for 30 min with the Microfuge 22R Centrifuge (Beckman Coulter™, Brea, California, US). The supernatant was collected and frozen at −20 C°. The next day, the supernatant, after thawing, was re-centrifuged at 14,000 rpm for another 30 min to clear the potential undissolved or pellet substances. After spinning twice, the supernatant was collected for subsequent experiments.
One hour following the incubation, the antibodies (2-4 μg) against either α5 subunit (cat #sc—31417, Santa Cruz Biotechnology, Inc., 10410 Finnell St. Dallas, TX, 75220, USA) or radixin (cat #ab91312, Abcam Inc., c/o 913860, PO Box 4090 Stn A, Toronto, ON M5W 0E9), or 4 μg of non-specific IgG protein (cat #sc—2028, Santa Cruz Biotechnology, Inc., 10410 Finnell St. Dallas, TX, 75220, USA), were added to the lysate solution. […]

Assay [2] deals with GABAA receptor-mediated tonic current in hippocampal neurons. Description: Whole-cell voltage-clamp recordings of tonic current in astrocyte-neuron co-cultures. The following applies: co-treatment with etomidate 1 μM; recordings 24 h later. In kind it is cell-based, mouse.
Assay [3] relates to α5GABAA receptor cell-surface expression. In words: Receptor cell-surface ELISA assay in cultured hippocampal neurons. Type of assay: cell-based, mouse. The note with it: peptide 2 μM, 24 hrs, astrocyte-conditioned medium (etomidate 1 μM, 1 hr). The procedure: This experimental cell culture model was used to test the effects of the inhibitory peptide on an overexpression of α5GABAA receptors on the surface of neurons. The medium from astrocytes that were treated with etomidate (1 μM, 1 hr) (conditioned medium) was collected, and the medium bathing cultured hippocampal neurons was exchanged with the astrocyte-conditioned medium. The cells were incubated at 37° C., 5% CO2 with the peptide or scramble peptide (2 μM). After 24 hrs incubation, the cells were used for receptor cell-surface ELISA assay. The cells were fixed in 4% paraformaldehyde for 20 min in the presence (permeabilized) or absence (non-permeabilized) of 1% Triton-X100. The cells, after 3 times wash with cold PBS and blocked with 5% bovine album solution, were incubated with a α5 antibody (Santa Cruz Biotech Inc.) at 4° C. overnight. The next day the cells were thoroughly washed with PBS and incubated with the horseradish peroxidase (HRP)-conjugated secondary antibody for 2 hrs. With HRP substrate added and color developed in the medium, the results were determined with microplate reader.
The cell surface expression of α5 subunit was presented as the ratio of the colorimetric reading under non-permeabilized conditions to those permeabilized conditions. Consistent with the previous report, etomidate increases α5GABAA receptor surface expression. This increase was blocked by the specific peptide, but not the scramble peptide (FIG. 6A).
For astrocyte culture, cortical astrocytes were isolated from embryonic day 18 (E18) mouse embryos. Cells were allowed to grow to confluence in MEM and 10% fetal bovine serum (FBS; Life Technologies, Grand Island, New York) for 14 d. Cells were then enzymatically dissociated with trypsin-EDTA (0.05%; Life Technologies, Grand Island, New York), and passaged three times to obtain a nearly pure astrocytic culture. Astrocytes were then plated at a density of 25,000 cells per dish. […]
On the technique in general: In an ELISA, binding on a coated surface is turned into a signal by an enzyme label.

T1 sequence (P26043 whole entry): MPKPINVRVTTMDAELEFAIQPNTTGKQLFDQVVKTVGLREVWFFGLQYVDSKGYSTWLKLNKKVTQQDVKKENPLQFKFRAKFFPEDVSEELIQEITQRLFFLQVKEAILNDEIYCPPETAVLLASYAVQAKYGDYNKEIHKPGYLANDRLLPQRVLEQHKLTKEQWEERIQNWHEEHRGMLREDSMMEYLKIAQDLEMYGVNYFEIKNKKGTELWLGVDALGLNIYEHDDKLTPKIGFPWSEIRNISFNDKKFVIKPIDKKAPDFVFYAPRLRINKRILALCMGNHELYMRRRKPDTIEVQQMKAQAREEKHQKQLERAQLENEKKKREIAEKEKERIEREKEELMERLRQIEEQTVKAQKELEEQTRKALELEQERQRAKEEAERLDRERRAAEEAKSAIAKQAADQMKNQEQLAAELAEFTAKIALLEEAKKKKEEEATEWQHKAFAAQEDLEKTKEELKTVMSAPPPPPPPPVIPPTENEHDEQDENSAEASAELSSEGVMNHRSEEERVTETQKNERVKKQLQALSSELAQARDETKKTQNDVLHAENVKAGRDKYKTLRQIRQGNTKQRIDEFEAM

For NYFTKRGWAWDGKKAL [inhibitory peptide], the “association between α5 subunit and radixin” value in assay [1] was “reduced the association”. Moreover, in assay [2], the “etomidate-induced increase in tonic current” value was “reversed”. For the same sequence, the “etomidate-induced increase in α5GABAA receptor surface expression” value in assay [3] was “blocked”.
